Legend:
[1] = Gallium nitrate release from 8P4 fabric (conductivity); format: physicochemical; conditions: from 8P4 fabric at 1.2, 1.0 and 0.2 g gallium nitrate per g 8P4; water extraction
Experimental: In order to determine release profiles of gallium nitrate from the fabric, a calibration curve was prepared as follows: Solutions of known concentrations of gallium nitrate in chloroform (not completely dissolved) were extracted with 10-mL deionized water. The electrical resistance of the aqueous solutions from extraction was measured. A calibration curve was constructed based on conductivity (inverse of measured resistance) and known concentration of gallium nitrate.
Drug release was established at 1, 2, 3, 4, 5, 8, 12, 18 and 28 days by extraction with water and measuring conductivity and generating gallium nitrate release profiles for 1.2 grams of gallium nitrate per gram (8P4), 1.0 gram of gallium nitrate per gram (8P4) and 0.2 am of gallium nitrate per gram (8P4). In each case there was a burst of drug release within the first 5 days.

[2] = In vitro release of 4-amino-TEMPO in PBS medium (ESR); format: physicochemical
Experimental: (§1) The in vitro release of 4-amino-TEMPO nitroxyl radicals from electrospun PEA fibers was investigated by immersing ˜300 mg 8-Phe-4 electrospun nano fibrous mat into a glass vial filled with 5 mL of 0.1M phosphate buffer solution of pH=7.42. The 8-Phe-4 nano fibrous mat was pre-loaded with 4-amino-TEMPO at a 10.0 mg 4-amino-TEMPO per g 8-Phe-4 and electrospun from a 39% wt/vol 8-Phe-4 solution in the mixture solvent of chloroform and DMF at volume ratio of 2 to 1. The glass vial was then placed in a water bath shaker maintained at 37° C. and 100 cycles/min. 10 μl of supernant of the vial was taken at a determined time and the amount of 4-amino-TEMPO nitroxyl radicals was measured by electron spin resonance (ESR) as a function of incubation time.
(§2) Three samples were taken for each measurement and the average results were reported. The ESR spectra at X-band were obtained from a Bruker 200D SRC spectrometer operating at 9.6 GHz, using 100 KHz modulation. The ESR signal intensity which is proportional to the mass of 4-amino-TEMPO nitroxyl free radical was obtained by a double integration of the recorded first derivative signals. A linear correlation (γ^2=0.9996) between the ESR signal intensity and the mass of nitroxyl radical ranging from 1.67 μg to 0.05 μg was obtained. The actual amount of 4-amino-TEMPO nitroxyl radicals loaded into the electrospun fibers was also determined by a complete dissolution of 8-Phe-4/4-amino-TEMPO electrospun fibrous membranes in DMF and the actual pre-loaded 4-amino-TEMPO amount within 8-Phe-4 fibers was calculated from the established calibration curve. The nitroxyl radicals released was measured in triplicates and expressed in the percentage of the initial pre-loaded amounts in the 8-Phe-4 fibers.

α-chymotrypsin = α-chymotrypsin (Bos taurus, UniProt P00766); assay: In vitro release of 4-amino-TEMPO in α-chymotrypsin solution (ESR); format: in vitro ADME
Experimental: as §1, §2
4-amino-TEMPO was physically pre-loaded into the 640 nm 8-Phe-4 electrospun fibers at a loading level of 10.0 mg TEMPO per gram of 8-Phe-4. Since 4-amino-TEMPO is a free radical, the actual amounts of 4-amino-TEMPO loaded into the 8-Phe-4 electrospun nanofibers and its subsequently release from the fibers in either PBS buffer or a α-chymotrypsin solution (0.1 mg/mL α-chymotrypsin) were quantified by ESR.

O=[N+]([O-])[O-].O=[N+]([O-])[O-].O=[N+]([O-])[O-].[Ga+3] [gallium nitrate, Gallium (III) nitrate hydrate]
period of burst of drug release [1]: ≤ 5 days

CC1(C)CC(N)CC(C)(C)N1[O] [4-amino-TEMPO, 4-amino-2,2,6,6-tetramethylpiperadine-1-oxy radical]
slope of the initial linear part of the release profile ([2]; PBS medium alone, 37° C.): 2.0 %/day
4-amino-TEMPO still entrapped inside the 8-Phe-4 matrix ([2]; after one month in PBS): more than 60%
initial burst release, of total loaded nitroxyl radical ([2]; first day, from 640 nm 8-Phe-4 nanofibers, pH 7.42 PBS, 37° C.): about 14%
residual nitroxyl radical in dissolved incubated membrane, of initial loading level ([2]; one-month incubated membrane dissolved in DMF, ESR): about 58%
release slope in α-chymotrypsin relative to PBS alone (α-chymotrypsin): more than 35 times
slope of the initial linear part of the release profile (α-chymotrypsin; 0.1 mg/mL α-chymotrypsin solution, 37° C.): 72 %/day
incorporated TEMPO released (α-chymotrypsin; within the 1st hr, α-chymotrypsin solution): more than 23%
time to complete release (α-chymotrypsin; α-chymotrypsin solution): ≤ 120 h

Reference: US8974815B2, “Fibrous membrane for biomedical application based on poly(ester-amide)s” (Cornell University, priority 2005, dated 2015)
